Assay results: ChEMBL document CHEMBL1641471, “Psammaplysin H, a new antimalarial bromotyrosine alkaloid from a marine sponge of the genus Pseudoceratina” (Bioorg Med Chem Lett, 2011)

Legend:
[1] = Selectivity index, ratio of IC50 for chloroquine-sensitive Plasmodium falciparum 3D7 to IC50 for human HepG2 cells
Plasmodium falciparum = assay: Antimalarial activity against chloroquine-sensitive Plasmodium falciparum 3D7 ring-stage infected in human erythrocytes after 48 hrs by [3H]hypoxanthine assay; type: functional, organism-based
HepG2 = assay: Cytotoxicity against human HepG2 cells after 72 hrs by Alamar Blue assay; type: cell-based; conditions: HepG2, 72 h
[2] = Cytotoxicity against human HepG2 cells assay at 40 uM after 72 hrs by Alamar Blue assay; type: cell-based; conditions: read-out: INH
[3] = Selectivity index, ratio of IC50 for chloroquine-sensitive Plasmodium falciparum 3D7 to IC50 for HEK293 cells
HEK293 = assay: Cytotoxicity against HEK293 cells after 72 hrs by Alamar Blue assay; type: cell-based; conditions: Homo sapiens, HEK293, 72 h
[4] = Cytotoxicity against HEK293 cells assay at 40 uM after 72 hrs by Alamar Blue assay; type: cell-based; conditions: human, read-out: INH

For COC1C(Br)=CO[C@@]2(C=C1Br)ON=C(C(=O)NCCCOc1c(Br)cc(CC[N+](C)(C)C)cc1Br)[C@@H]2O.O=C([O-])C(F)(F)F (some centres undefined) [PSAMMAPLYSIN H], which “Ratio IC50” value [1] is on record?
Its value is greater than 97.

What about the IC50 (Plasmodium falciparum) of the same compound?
The IC50 was 0.41 µM.

And the IC50 (HepG2)?
Its IC50 is greater than 40 µM.

And the cytotoxicity at 72 h, 40 µM [2]?
Its cytotoxicity at 72 h, 40 µM is 33%.

What about the “Ratio IC50” value [3] of the same compound?
The value was greater than 97.

What about the IC50 (HEK293) of the same compound?
Its IC50 is greater than 40 µM.

And the cytotoxicity at 72 h, 40 µM [4]?
The cytotoxicity at 72 h, 40 µM was 35%.

Which results are given for COC1C(Br)=CO[C@@]2(C=C1Br)ON=C(C(=O)NCCCOc1c(Br)cc(CCN(C)C(N)=O)cc1Br)[C@@H]2O (some centres undefined) [PSAMMAPLYSINS G]?
Ratio IC50 [1]: 3; IC50 (Plasmodium falciparum): 5.22 µM; IC50 (HepG2): 17.4 µM; Ratio IC50 [3]: 3; IC50 (HEK293): 18.7 µM

What does the source list for CNCCc1cc(Br)c(OCCCNC(=O)C2=NO[C@@]3(C=C(Br)C(OC)C(Br)=CO3)[C@H]2O)c(Br)c1 (some centres undefined) [PSAMMAPLYSINS F]?
Ratio IC50 [1]: 2; IC50 (Plasmodium falciparum): 1.92 µM; IC50 (HepG2): 3.7 µM; Ratio IC50 [3]: 5; IC50 (HEK293): 10.9 µM

With CCN(CC)CCCC(C)Nc1ccnc2cc(Cl)ccc12 (centres undefined) [CHLOROQUINE] as the compound, how does the IC50 (HepG2) read?
The IC50 was 12.9 µM.

And the IC50 (HEK293)?
The IC50 was 48 µM.
